Measurements taken from US20090023687A1, “Method for Controlling Phytopathogenic Organisms” (SYNGENTA CROP PROTECTION, INC., priority 2005, published 2009).

Legend:
Format in all cases: in vivo
[1] = system: Phakopsora pachyrhizi; experiment: Leaf disc test with Phakopsora pachyrhizi on glyphosate resistant soybean (Example 1)
Source text: (§1) A synergistic effect exists whenever the action of an active ingredient combination is greater than the action expected from the effect of the individual components.
(§2) The action to be expected (E) for a given active ingredient combination obeys the so-called COLBY formula and can be calculated as follows (COLBY, S. R. “Calculating synergistic and antagonistic responses of herbicide combination”. Weeds, Vol. 15, pages 20-22; 1967):
(§3) ppm=milligrams of active ingredient (=a.i.) per litre of spray mixture X=% action by active ingredient I using p ppm of active ingredient Y=% action by active ingredient II using q ppm of active ingredient.
(§4) According to Colby, the expected (additive) action of active ingredients I+II using p+q ppm of active ingredient is
(§5) If the action actually observed (O) is greater than the expected action (E), then the action of the combination is superadditive, i.e. there is a synergistic effect.
A series of leaf disc tests were conducted to show the effects of tank mixtures of glyphosate and fungicides on Asian soybean rust. The soybean variety tested was NK Brand S40-R9 glyphosate resistant soybean. The leaf source for the testing was the first trifoliate leaf. Six (6) repetitions for each formulation and at each rate were conducted. Treatment of the leaf with the recited active ingredients was conducted 29 days after planting. The leaves were inoculated with Phakopsora pachyrhizi (Asian soybean rust (ASR)) one (1) day after treatment. Evaluation of the leaf was conducted ten (10) days after inoculation and the mean percent infestation of the six trials is reported in Table 1.
The glyphosate source was Zapp® QI herbicide (Syngenta Corp.), containing the potassium salt of glyphosate as well as an adjuvant system. The fungicide used was Priori® Xtra (Syngenta Corp.), which is a suspension concentrate containing 200 g/L of azoxystrobin (AZ) and 80 g/L of cyproconazole (CCZ). The rates of the active ingredients used in the tests are set forth in the Table as mg active ingredient (a.i.)/L.

[2] = system: Phakopsora pachyrhizi; experiment: whole plant or invertebrate; conditions: in Glycine max, foliar, read-out: % activity observed
Source text: as §1, §2, §3, §4, §5
A series of leaf disc tests were conducted to show the effects of tank mixtures of glyphosate and the ortho-substituted phenyl-amide (OPA) fungicides represented by structures F-5 and F-9 on Asian soybean rust. The soybean variety tested was brand Williams82 glyphosate sensitive soybean. The leaf source for the testing was the first trifoliate leaf. Six (6) repetitions for each formulation and at each rate were conducted. Treatment of the leaf with the recited active ingredients was conducted 4 weeks after planting. The leaves were inoculated with Phakopsora pachyrhizi (Asian soybean rust (ASR)) one (1) day after treatment. Evaluation of the leaf was conducted ten (10) days after inoculation and the mean percent infestation of the six repetitions is reported in Tables 3 and 4.
The glyphosate source was Touchdown® HiTech herbicide (Syngenta Corp.), containing the potassium salt of glyphosate and no adjuvant system. The compound OPA F-5 used was a compound of formula F-5, wherein the ratio of racemic compounds of formula F-3 (syn) to racemic compounds of formula F-4 (anti) was 9:1. The compound OPA F-9 used was a compound of formula F-9, wherein the ratio of racemic compounds of formula F-7 (trans) to racemic compounds of formula F-8 (cis) was around 100:1. The fungicides used were EC100 formulations of OPA F-5 and OPA F-9 which are emulsion concentrates containing 100 ga.i./L. The rates of the active ingredients used in the tests are set in the table as mg active ingredient (a.i.)/L.

[3] = system: Puccinia recondita; experiment: Greenhouse trial with Puccinia recondita on glyphosate sensitive wheat (Example 3); conditions: read-out: % activity observed
Source text: as §1, §2, §3, §4, §5
Greenhouse tests were conducted to show the effects of tank mixtures of glyphosate and the ortho-substituted phenyl-amide (OPA) fungicides represented by structures F-10, F-5 and F-9 on cereal rust Puccinia recondita. The wheat variety tested was brand Kanzler glyphosate sensitive wheat. Three (3) repetitions for each formulation and at each rate were conducted. Treatment of the plants with the recited active ingredients was conducted preventatively 16 days after planting. The leaves were inoculated with Puccinia recondita one (1) day after treatment. Evaluation of the leaf was conducted […] after inoculation and the mean percent infestation of the three repetitions is reported in Tables 5-7.
The glyphosate source was Zapp® QI herbicide containing the potassium salt of glyphosate as well as an adjuvant system. The compound OPA F-5 used was a compound of formula F-5, wherein the ratio of racemic compounds of formula F-3 (syn) to racemic compounds of formula F-4 (anti) was 9:1. The compound OPA F-9 used was a compound of formula F-9, wherein the ratio of racemic compounds of formula F-7 (trans) to racemic compounds of formula F-8 (cis) was around 100:1. The fungicides used were EC 100 formulations of OPA F-10, OPA F-5 and OPA F-9 which are emulsion concentrates containing 100 ga.i./L. The rates of the active ingredients used in the tests are set in Tables 5-7 as mg active ingredient (a.i.)/L.

[4] = system: Phakopsora pachyrhizi; experiment: Application on whole plants: leaf disc test with Phakopsora pachyrhizi on glyphosate tolerant soybean (Example 6)
Source text: as §1, §2, §3, §4, §5
Leaf disc tests were conducted to show the effects of tank mixtures of glyphosate and pesticides or plant activators on Asian soybean rust. The soybean variety tested was brand S40-R9 glyphosate tolerant soybean. The leaf source for the testing was the first trifoliate leaf. Six (6) repetitions for each formulation and at each rate were conducted. […] were cut and inoculated with Phakopsora pachyrhizi (Asian soybean rust (ASR)) one (1) day after treatment. Evaluation of the leaf was conducted ten (10) days after inoculation and the mean percent infestation of the six repetitions is reported in Tables 15-17.
As glyphosate source Touchdown® HiTech or Zapp® QI was used. The fungicides were used as commercial formulations: Bravo® SC500 fungicide comprising chlorothalonil (Syngenta Corp.), Score® EC250 fungicide comprising difenaconazole (Syngenta Corp.) and Mancozeb 80WP fungicide comprising mancozeb. The rates of the active ingredients used in the tests are set in Tables 15-17 as g active ingredient (a.i.)/hectare (ha). The spray volume was 200 l/ha.

[5] = Glyphosate TD HiTech SL523 500 g a.i./ha, Tables 15, 17 (check 60)
[6] = Glyphosate TD HiTech SL523 1500 g a.i./ha, Table 16 (check 49)
[7] = Glyphosate TD HiTech SL523 1500 g a.i./ha, Tables 15, 17 (check 60)

SMILES: O=C(O)CNCP(=O)(O)O [Glyphosate, glyphosate]
- % Leaf attack ([1]; Glyphosate 0.1 mg a.i./L (Zapp QI)): 90%
- % Leaf attack ([1]; Glyphosate 0.39 mg a.i./L (Zapp QI)): 90%
- % Leaf attack ([1]; Glyphosate 1.56 mg a.i./L (Zapp QI)): 100%
- % Leaf attack ([1]; Glyphosate 6.25 mg a.i./L (Zapp QI)): 100%
- % Leaf attack ([1]; Glyphosate 25 mg a.i./L (Zapp QI)): 100%
- % Leaf attack ([1]; Glyphosate 100 mg a.i./L (Zapp QI)): 100%
- inhibition at 0.1 µg/mL ([1]; Phakopsora pachyrhizi, foliar, Glyphosate 0.1 mg a.i./L (Zapp QI), read-out: % Activity observed): 6%
- inhibition at 0.39 µg/mL ([1]; Phakopsora pachyrhizi, foliar, Glyphosate 0.39 mg a.i./L (Zapp QI), read-out: % Activity observed): 6%
- inhibition at 1.56 µg/mL ([1]; Phakopsora pachyrhizi, foliar, Glyphosate 1.56 mg a.i./L (Zapp QI), read-out: % Activity observed): 0%
- inhibition at 6.25 µg/mL ([1]; Phakopsora pachyrhizi, foliar, Glyphosate 6.25 mg a.i./L (Zapp QI), read-out: % Activity observed): 0%
- inhibition at 25 µg/mL ([1]; Phakopsora pachyrhizi, foliar, Glyphosate 25 mg a.i./L (Zapp QI), read-out: % Activity observed): 0%
- inhibition at 100 µg/mL ([1]; Phakopsora pachyrhizi, foliar, Glyphosate 100 mg a.i./L (Zapp QI), read-out: % Activity observed): 0%
- inhibition at 2.5 µg/mL ([2]; Glyphosate 2.5 mg a.i./L (Touchdown HiTech)): 0%
- inhibition at 7.4 µg/mL ([2]; Glyphosate 7.4 mg a.i./L (Touchdown HiTech)): 0%
- inhibition at 22.2 µg/mL ([2]; Glyphosate 22.2 mg a.i./L (Touchdown HiTech)): 14%
- inhibition at 66.7 µg/mL ([2]; Glyphosate 66.7 mg a.i./L (Touchdown HiTech)): 0%
- inhibition at 200 µg/mL ([2]; Glyphosate 200.0 mg a.i./L (Touchdown HiTech)): 0%
- inhibition at 600 µg/mL ([2]; Glyphosate 600 mg a.i./L (Touchdown HiTech)): 34%
- inhibition at 66 µg/mL ([3]; Glyphosate 66 mg a.i./L (Zapp QI)): 0%
- inhibition at 200 µg/mL ([3]; Glyphosate 200 mg a.i./L (Zapp QI)): 42%
- Activity observed % [4, 5]: 0%
- Leaf attack % [4, 5]: 68%
- Activity observed % [4, 6]: 44%
- Leaf attack % [4, 6]: 28%
- Activity observed % [4, 7]: 17%
- Leaf attack % [4, 7]: 50%
